Consider one compound from ChEMBL document CHEMBL1926625, “Identification of benzoxazin-3-one derivatives as novel, potent, and selective nonsteroidal mineralocorticoid receptor antagonists” (J Med Chem, 2011).

One series addresses T1, Glucocorticoid receptor (Homo sapiens, UniProt P04150).
T1 sequence (P04150 whole entry): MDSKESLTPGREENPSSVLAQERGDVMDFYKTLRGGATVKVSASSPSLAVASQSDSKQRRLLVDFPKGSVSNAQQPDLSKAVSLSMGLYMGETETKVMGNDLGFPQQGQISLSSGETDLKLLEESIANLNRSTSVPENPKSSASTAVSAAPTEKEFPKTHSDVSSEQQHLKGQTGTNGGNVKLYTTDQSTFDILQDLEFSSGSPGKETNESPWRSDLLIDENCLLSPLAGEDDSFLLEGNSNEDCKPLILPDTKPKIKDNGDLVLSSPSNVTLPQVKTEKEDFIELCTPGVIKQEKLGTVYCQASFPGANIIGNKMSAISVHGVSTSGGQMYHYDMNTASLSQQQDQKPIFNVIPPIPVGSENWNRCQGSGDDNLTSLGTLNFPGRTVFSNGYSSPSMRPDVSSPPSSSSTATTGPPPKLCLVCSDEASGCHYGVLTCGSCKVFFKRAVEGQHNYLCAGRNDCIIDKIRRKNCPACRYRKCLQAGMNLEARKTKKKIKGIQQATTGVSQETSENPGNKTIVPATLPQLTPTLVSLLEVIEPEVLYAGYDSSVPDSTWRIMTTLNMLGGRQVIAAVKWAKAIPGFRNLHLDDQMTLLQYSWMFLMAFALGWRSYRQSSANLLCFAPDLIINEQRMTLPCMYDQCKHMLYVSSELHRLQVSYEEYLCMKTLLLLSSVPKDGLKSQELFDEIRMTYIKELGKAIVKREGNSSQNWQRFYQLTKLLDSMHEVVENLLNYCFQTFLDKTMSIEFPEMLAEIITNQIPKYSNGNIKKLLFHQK
The experiment in a line: Displacement of [3H]dexomethasone from GR.

The target in the next series is T2, Progesterone receptor (Homo sapiens, UniProt P06401).
T2 sequence (P06401 whole entry): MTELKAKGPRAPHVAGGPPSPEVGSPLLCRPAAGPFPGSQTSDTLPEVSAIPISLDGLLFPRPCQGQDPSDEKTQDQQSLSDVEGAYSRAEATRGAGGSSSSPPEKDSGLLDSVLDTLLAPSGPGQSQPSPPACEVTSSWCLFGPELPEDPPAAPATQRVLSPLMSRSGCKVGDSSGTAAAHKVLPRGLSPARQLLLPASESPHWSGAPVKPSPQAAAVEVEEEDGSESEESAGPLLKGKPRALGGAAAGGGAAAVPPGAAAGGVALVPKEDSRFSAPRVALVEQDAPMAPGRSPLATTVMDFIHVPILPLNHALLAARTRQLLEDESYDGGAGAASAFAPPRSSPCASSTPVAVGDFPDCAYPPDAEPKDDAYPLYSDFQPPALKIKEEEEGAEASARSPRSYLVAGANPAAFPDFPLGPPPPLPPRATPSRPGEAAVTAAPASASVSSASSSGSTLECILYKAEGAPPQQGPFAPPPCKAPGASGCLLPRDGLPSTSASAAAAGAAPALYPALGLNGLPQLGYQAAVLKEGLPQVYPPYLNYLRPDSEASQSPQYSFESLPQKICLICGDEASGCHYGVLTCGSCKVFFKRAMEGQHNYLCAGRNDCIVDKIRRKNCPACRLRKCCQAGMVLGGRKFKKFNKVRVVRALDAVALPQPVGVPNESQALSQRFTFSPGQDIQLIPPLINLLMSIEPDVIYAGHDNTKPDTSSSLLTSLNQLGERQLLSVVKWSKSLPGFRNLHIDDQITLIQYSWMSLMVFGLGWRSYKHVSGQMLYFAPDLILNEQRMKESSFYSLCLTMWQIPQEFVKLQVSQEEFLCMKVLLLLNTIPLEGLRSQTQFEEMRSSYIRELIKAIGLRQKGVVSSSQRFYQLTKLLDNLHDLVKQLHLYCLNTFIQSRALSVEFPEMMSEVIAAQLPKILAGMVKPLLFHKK
Description: Displacement of [3H]progesterone from PR. (In a radioligand displacement assay an active substance lowers the binding of a labelled ligand.)

Series [1] can be described thus: Clearance in Sprague-Dawley rat at 3 mg/kg, iv and 10 mg/kg, po. Format: ADME, organism-based. The conditions noted are these: in vivo.
Series [2] in a line: AUC (0 to 24 hrs) in Sprague-Dawley rat at 10 mg/kg, po. It counts as ADME, organism-based. Further details: time < 24 hr, dose 10 mg/kg, route oral. The conditions noted are these: plasma.
A short description of series [3]: Mean residence time in Sprague-Dawley rat at 10 mg/kg, po. Format: ADME, organism-based. Further details: dose 10 mg/kg, route oral. The conditions noted are these: in vivo.
Series [4] is described as follows: Bioavailability in Sprague-Dawley rat at 3 mg/kg, iv and 10 mg/kg, po. Format: ADME, organism-based. The note with it: in vivo.
The target of series [5] is T3, Mineralocorticoid receptor (Homo sapiens, UniProt P08235).
T3 sequence (P08235 whole entry): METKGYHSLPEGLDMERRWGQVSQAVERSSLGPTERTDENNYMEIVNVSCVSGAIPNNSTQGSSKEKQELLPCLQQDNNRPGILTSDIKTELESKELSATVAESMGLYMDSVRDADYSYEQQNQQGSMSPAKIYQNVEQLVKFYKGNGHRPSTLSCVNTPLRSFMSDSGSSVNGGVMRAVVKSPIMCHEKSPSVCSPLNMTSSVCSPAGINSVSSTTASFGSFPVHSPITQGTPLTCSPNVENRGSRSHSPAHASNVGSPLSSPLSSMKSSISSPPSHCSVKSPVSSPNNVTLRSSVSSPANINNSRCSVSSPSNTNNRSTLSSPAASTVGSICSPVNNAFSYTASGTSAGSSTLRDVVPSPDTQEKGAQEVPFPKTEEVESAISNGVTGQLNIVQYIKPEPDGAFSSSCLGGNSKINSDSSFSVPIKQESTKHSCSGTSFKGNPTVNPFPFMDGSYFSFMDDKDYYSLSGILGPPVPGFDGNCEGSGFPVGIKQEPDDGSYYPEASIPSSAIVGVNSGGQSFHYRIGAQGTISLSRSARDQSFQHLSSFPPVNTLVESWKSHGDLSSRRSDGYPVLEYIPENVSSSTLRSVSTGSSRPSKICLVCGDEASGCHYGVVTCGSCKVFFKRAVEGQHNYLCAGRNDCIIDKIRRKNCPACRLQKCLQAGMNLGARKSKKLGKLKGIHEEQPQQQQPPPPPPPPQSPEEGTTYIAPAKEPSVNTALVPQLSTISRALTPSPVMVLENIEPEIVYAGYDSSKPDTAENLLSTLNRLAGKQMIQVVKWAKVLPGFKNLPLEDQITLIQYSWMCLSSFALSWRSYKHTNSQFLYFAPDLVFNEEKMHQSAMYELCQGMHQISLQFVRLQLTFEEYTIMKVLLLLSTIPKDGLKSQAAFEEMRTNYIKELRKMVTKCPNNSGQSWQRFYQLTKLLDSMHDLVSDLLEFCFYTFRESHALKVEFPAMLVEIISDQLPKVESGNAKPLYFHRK
Description: Antagonist activity at human MR transfected in human COS1 cells after 1 day by luciferase reporter gene assay

Series [6] addresses T3, Mineralocorticoid receptor. The experiment in a line: biochemical.
Description: Displacement of [3H]aldosterone from cytosolic human MR expressed in HEK293 cells after 16 hrs by scintillation counting

What is called IC50 is the concentration that gives 50% inhibition. The low end stands for higher potency, the high end for lower potency. One may read the AUC(0-t) as exposure summed from dosing to a finite time, without extrapolation to infinity. Read a low AUC(0-t) as less exposure. In general, MRT refers to a mean duration of stay, worked out from the concentration-time curve. As a reminder, the bioavailability is the share of a dose that reaches the circulation, judged against a reference dose that is usually intravenous. In the case of `Cc1cc(F)ccc1-n1nc(C(F)(F)F)cc1-c1ccc2c(c1)NC(=O)CO2`, the IC50 stood at 1800 nM at Glucocorticoid receptor, 1900 nM at Progesterone receptor, 43 nM in series [5] and 41 nM in series [6]. This compound also had a clearance in series [1] of 22.1 mL/min/kg. In series [2], this compound showed an AUC(0-t) at 24 h of 3830 ng·h/mL. In series [3], this compound showed a mean residence time (MRT) of 4.39 h. In addition, the bioavailability in series [4] is 50.7%.
